Results published in PMC11994961, “In Vivo pharmacokinetic interactions of ribociclib with rivaroxaban and apixaban in rats: implications for increased drug exposure and dose adjustments” (Frontiers in Pharmacology, 2025).

Columns and labels:
[1] = tested on: Cyp3a1(CYP3A4) mRNA in the intestines; assay: qRT-PCR mRNA expression in rat intestine after ribociclib; type: in vivo; details: rats, ribociclib continuously for 8 days
Description: (§1) qRT-PCR analysis was used to determine the mRNA levels of Cyp3a1(CYP3A4) in the liver and Abcb1a (P-gp), Cyp3a1(CYP3A4), Abcg2(BCRP) in the intestines. Total RNA was extracted from frozen liver and intestine samples using the TRNzol Universal reagent, following the manufacturer’s instructions. The Bio Tek Epoch (Bio Tek Instruments, Inc., Winooski, VT, United States) was used to quantify the purity and concentration of the total RNA, based on the ratio of the absorbance at 260 and 280 nm. The RNA samples, each containing 1 µg of material, were converted to complementary DNA (cDNA) using the FastKing RT Kit. The real-time PCR assays were performed using a two-step amplification protocol on the SLAN-96S Real-Time PCR system (Shanghai Hongshi Medical Technology Co., Ltd., Shanghai, China). […] was employed as an internal control, and the PCR cycling criteria were as follows: 95°C for 15 min, followed by 40 cycles of 95°C for 10 s and 60°C for 32 s.

[2] = tested on: Abcg2(BCRP) mRNA in the intestines; assay: as above; type: in vivo; details: rats, ribociclib continuously for 8 days
Description: as §1

[3] = tested on: Abcb1a (P-gp) mRNA in the intestines; assay: as above; type: in vivo; details: rats, ribociclib continuously for 8 days
Description: as §1

[4] = design: method as in Wang et al., 2023; details: rats, with almonertinib; ref Wang et al., 2023; cited from earlier work
[5] = design: method as in Hindley et al., 2023; details: ref Hindley et al., 2023; cited from earlier work
[6] = design: method as in Kvasnicka et al., 2017; details: ref Kvasnicka et al., 2017; cited from earlier work
CYP3A4/5 = tested on: CYP3A4/5; design: method as in Mueck et al., 2013; details: ref Mueck et al., 2013; cited from earlier work

Compound | inhibition rate of intestinal Cyp3a1 mRNA expression [1] [%] | inhibition rate of intestinal Abcg2 mRNA expression [2] [%] | mRNA expression of Abcb1a in the intestine [3] | increase in AUC [4] | increase in Cmax [4] | plasma protein binding [5] | time to maximum plasma concentration (Cmax) after administration [6] [h] | share of total elimination by CYP3A4/5 (CYP3A4/5)
CN(C)C(=O)c1cc2cnc(Nc3ccc(N4CCNCC4)cn3)nc2n1C1CCCC1 [RIBO, ribociclib] | 82.6 | 45.0 | no significant changes |  |  |  |  | 
O=C(NC[C@H]1CN(c2ccc(N3CCOCC3=O)cc2)C(=O)O1)c1ccc(Cl)s1 [RIVA, rivaroxaban] |  |  |  | over three fold increases | over three fold increases | approximately 95% | 2 to 4 | approximately 18%
